This note sets out measurements from US6596500B1, “Binding of retinoids to M6P/IGF-II receptor” (The General Hospital Corporation, priority 1998, dated 2003).

The structures appear in SMILES notation. “Also recorded” adds a separate entry of the source.

Experiment [1] has as its target T1, M6P/IGF2R (300 kDa protein) (Rattus norvegicus, UniProt G3V824).
T1 construct: about 100 μg of proteins of membrane preparations or serum; from tissue; host or cells: membrane preparations of cultured neonatal Sprague-Dawley rat cardiac myocytes
Briefly: [3H]RA photoaffinity labeling of the 300 kDa protein. Format: binding. Conditions: for Inhibition of [3H]RA photolabeling/binding to M6P/IGF2R by nonradioactive competitor: 25- to 50-fold molar excess (50 μM) competitor added before photolysis. How it is done: Photoaffinity Labeling Photoaffinity labeling was performed essentially according to the methods described in Bernstein et al., 1995, Proc. Natl. Acad. Sci. USA 92:654-658. […] After the ethanol has been evaporated with nitrogen, about 100 μg of proteins of membrane preparations or serum [serum proteins were first concentrated using a Biomax-100K Centrifugal Filter Device (Millipore)] were then added to each tube. The final volume was adjusted to 100 μl with 50 mM Tris buffer (pH 7.4) containing protease inhibitors (5 mM EDTA, 5 mM EGTA, 0.1 mM phenylmethylsulfonyl fluoride, 0.05% NaN3, 20 μg/ml aprotinin, 10 μg/ml benzamidine and 12.5 μg/ml chymostatin) and 50 μM butylated hydroxytoluene (a radical scavenger, used to minimize the non-specific labeling) for a final concentration of 1 μM labeled retinoic acid. The samples were incubated at room temperature with agitation for 1 hour in the dark. The samples were exposed to an intense 365-nm UV light source (Model B 100AP, UPland, CA) for 7 min. […] To remove the non-covalently bound ligands, the photolabeled samples were extracted with chloroform/methanol (2:1), or washed once by centrifugation for membrane samples only).
Fluorography The resultant protein pellets were dissolved in SDS sample buffer containing 5% β-mercapto-ethanol and heated at 100° C. for 5 min. These samples were then run on 7% polyacrylamide gels (30:0.2, acrylamide/bisacrylamide ratio), using conventional SDS/PAGE techniques. After electrophoresis, the gels were stained with Coomassie blue, soaked in Amplifier (Amersham, Life Science) for 30 minutes, dried by a vacuum gel dryer and then exposed to Hyperfilm-TM X-ray films (Amersham, Life Science) at […] for 1-3 days.

A further experiment concerns the target M6P/IGF2R (Rattus norvegicus, UniProt G3V824). In words: β-glucuronidase binding to saponin-permeabilized cardiac myocytes. It is filed as cell-based. The arrangement: endogenous in cells; host or cells: primary neonatal rat cardiac fibroblasts. Conditions: RA 1 μM; saponin-permeabilized neonatal rat cardiac myocytes. The procedure: FIG. 3 is a histogram summarizing data on the effect of RA (1 μM) on β-glucuronidase binding to permeabilized neonatal rat cardiac myocytes (n=3).
To determine how these ligands interact in binding to the same receptor, we examined the effects of M6P and IGF-II on the [^3H]RA-affinity photolabeling of the M6P/IGF-II receptor. […] The [^3H]RA labeling of M6P/IGF-II receptor was 2-fold greater in the presence of 5 mM M6P than in the absence of M6P, as measured by NIH Image, n=3. Similar results were obtained by measurement of the binding of [^3H]RA to the partially purified receptors (FIG. 2). The increased binding of RA to the receptor in the presence of M6P appeared to be the result of increased binding affinity. […]
β-glucuronidase Binding and Endocytosis For binding assays, cells were permeabilized with saponin, incubated with β-glucuronidase (20,000 units/ml) with or without 1 μM RA for 3 h on ice, washed, solubilized and assayed for β-glucuronidase essentially as described by Miniti et al., 1992, J. Biol. Chem. 267:9000-9004. Specific enzyme binding was calculated by subtracting nonspecific binding (in the presence of 10 mM M6P) from total binding.

Experiment [2] deals with P388D1 cells. In words: Cathepsin B distribution in P388D1 cells lacking or overexpressing M6P/IGF2R. Format: cell-based, mouse.
Source text: Intracellular Trafficking Materials Retinoic acid was obtained from Sigma Chem. Co. (St. Louis, Mo.). The synthetic retinoids used (AGN193109, TTNPB) were produced by Allergan Inc. (Irvine, Calif.). Stably-transfected P388D1 cells re-expressing the M6P/IGF2R were provided by Dr. William S. Sly (St. Louis University). The rabbit polyclonal antibody against the rat M6P/IGF-II receptor was a gift from Dr. R.G. MacDonald (University of Nebraska). The rabbit polyclonal anti-rat cathepsin B antibody was purchased from Upstate Biotechnology (N.Y.). The FITC-conjugated goat anti-rabbit IgG was obtained from Jackson ImmunoResearch Laboratories (West Grove, Pa.). Neonatal rat cardiac fibroblasts were prepared from 1-day-old rats using the Neonatal Cardiomyocyte Isolation System (Worthington) and grown on glass coverslips in F-10 nutrient mixture with 10% horse serum and 5% fetal bovine serum (FBS). Cells were used in experiments after 3-5 days of culture. Mouse macrophage P3,88D1 cells were cultured in minimum essential medium-a (MEM-α) supplemented with 10% FBS.
Cells were then fixed with 4% paraformaldehyde in phosphate-buffered saline (PBS) for 30 min. The cells were washed in PBS, permeabilized with 0.1% Triton X-100 in PBS for 5 min, and then incubated with either polyclonal anti-rat M6P/IGF2R antibody or anti-rat cathepsin B antibody (diluted 1:200) at room temperature for 1 h. […]
The subject of experiment [3] is neonatal rat cardiac myocytes. Briefly: Cellular acid phosphatase activity in cultured cardiac myocytes. Format: cell-based. Conditions: RA 2 μM; various times. The procedure: FIG. 6. is a graph summarizing data on the effect of RA on cellular acid phosphatase activity. Cultured neonatal rat cardiac myocytes were treated with 2 μM RA at 37° C. for various time, washed and harvested. Cellular proteins were then solubilized by sonication and acid phosphatase activity was assayed using a Diagnostics Acid Phosphatase kit (Sigma). Dotted line represents control cells. Solid line represents RA-treated cells. Bars represent standard error or the mean (n=4).
The primary functions of the Man-6-P/IGF-II receptor are to mediate endocytosis of extracellular M6P-containing proteins (e.g. lysosomal enzymes) and IGF-II and to sort newly synthesized lysosomal enzymes. Therefore, an important question raised by the direct interaction of RA with M6P/IGF2R is whether RA influences these functions of the receptor. To answer this question, we examined the effect of RA on endocytosis of exogenous β-glucuronidase and ^125I-IGF-II and intracellular activity of acid phosphatase in cultured neonatal rat cardiac myocytes, which were known to express high levels of the M6P/IGF-II receptor (Nissley et al., 1993, Mol. Reprod. Dev. 35:408-413). […] This indicated an increased sorting of lysosomal enzymes) (FIGS. 4-6). […] These effects of RA were not altered in the presence of a protein synthesis inhibitor (0.5 mM cycloheximide) and were not observed in the receptor-negative P388D1 cells. […]

Experiment [4] concerns neonatal rat cardiac myocytes. Briefly: Growth, morphology and apoptosis of cardiac myocytes. It is filed as cell-based. The procedure: Cultured neonatal rat cardiac myocytes were known to express high levels of the M6P/IGF2R protein. The effect of RA on the growth of normal, neonatal rat cardiac myocytes was examined.
Cell Isolation and Culture For the photoaffinity labeling experiments, cardiac myocytes were isolated from 1-day-old neonatal Sprague-Dawley rats, using the Neonatal Cardiomyocyte Isolation System (Worthington). The isolated cell were cultured on Petri dishes with culture medium (F-10 nutrient mixture/10% horse serum/5% fetal bovine serum/50 μg/ml streptomycin/50 units/ml penicillin G). Cells were used for experiments after 2-6 days of culture.

Experiment [5] relates to P388D1 cells. In words: Morphology, growth and apoptosis of P388D1 cells overexpressing M6P/IGF2R. Format: cell-based, mouse. The note with it: for Cell morphology: 1 μM RA for 24 hours. How it is done:
FIG. 10 is a graph showing the effect of RA treatment on growth rate of P388D1 cells overexpressing M6P/IGF2R protein and P388D1 controls. Open circles, vector control cells without RA treatment; closed circles, vector control cells with 1 μM RA treatment; open triangles, overexpressing cells without RA treatment; closed triangles overexpressing cells with 1 μM RA treatment.
We examined M6P/IGF2R-mediated effects of RA in mouse macrophage P388D1 cells, which are the best characterized cells that lack the M6P/IGF2R protein.

T1 sequence (G3V824 36-2481): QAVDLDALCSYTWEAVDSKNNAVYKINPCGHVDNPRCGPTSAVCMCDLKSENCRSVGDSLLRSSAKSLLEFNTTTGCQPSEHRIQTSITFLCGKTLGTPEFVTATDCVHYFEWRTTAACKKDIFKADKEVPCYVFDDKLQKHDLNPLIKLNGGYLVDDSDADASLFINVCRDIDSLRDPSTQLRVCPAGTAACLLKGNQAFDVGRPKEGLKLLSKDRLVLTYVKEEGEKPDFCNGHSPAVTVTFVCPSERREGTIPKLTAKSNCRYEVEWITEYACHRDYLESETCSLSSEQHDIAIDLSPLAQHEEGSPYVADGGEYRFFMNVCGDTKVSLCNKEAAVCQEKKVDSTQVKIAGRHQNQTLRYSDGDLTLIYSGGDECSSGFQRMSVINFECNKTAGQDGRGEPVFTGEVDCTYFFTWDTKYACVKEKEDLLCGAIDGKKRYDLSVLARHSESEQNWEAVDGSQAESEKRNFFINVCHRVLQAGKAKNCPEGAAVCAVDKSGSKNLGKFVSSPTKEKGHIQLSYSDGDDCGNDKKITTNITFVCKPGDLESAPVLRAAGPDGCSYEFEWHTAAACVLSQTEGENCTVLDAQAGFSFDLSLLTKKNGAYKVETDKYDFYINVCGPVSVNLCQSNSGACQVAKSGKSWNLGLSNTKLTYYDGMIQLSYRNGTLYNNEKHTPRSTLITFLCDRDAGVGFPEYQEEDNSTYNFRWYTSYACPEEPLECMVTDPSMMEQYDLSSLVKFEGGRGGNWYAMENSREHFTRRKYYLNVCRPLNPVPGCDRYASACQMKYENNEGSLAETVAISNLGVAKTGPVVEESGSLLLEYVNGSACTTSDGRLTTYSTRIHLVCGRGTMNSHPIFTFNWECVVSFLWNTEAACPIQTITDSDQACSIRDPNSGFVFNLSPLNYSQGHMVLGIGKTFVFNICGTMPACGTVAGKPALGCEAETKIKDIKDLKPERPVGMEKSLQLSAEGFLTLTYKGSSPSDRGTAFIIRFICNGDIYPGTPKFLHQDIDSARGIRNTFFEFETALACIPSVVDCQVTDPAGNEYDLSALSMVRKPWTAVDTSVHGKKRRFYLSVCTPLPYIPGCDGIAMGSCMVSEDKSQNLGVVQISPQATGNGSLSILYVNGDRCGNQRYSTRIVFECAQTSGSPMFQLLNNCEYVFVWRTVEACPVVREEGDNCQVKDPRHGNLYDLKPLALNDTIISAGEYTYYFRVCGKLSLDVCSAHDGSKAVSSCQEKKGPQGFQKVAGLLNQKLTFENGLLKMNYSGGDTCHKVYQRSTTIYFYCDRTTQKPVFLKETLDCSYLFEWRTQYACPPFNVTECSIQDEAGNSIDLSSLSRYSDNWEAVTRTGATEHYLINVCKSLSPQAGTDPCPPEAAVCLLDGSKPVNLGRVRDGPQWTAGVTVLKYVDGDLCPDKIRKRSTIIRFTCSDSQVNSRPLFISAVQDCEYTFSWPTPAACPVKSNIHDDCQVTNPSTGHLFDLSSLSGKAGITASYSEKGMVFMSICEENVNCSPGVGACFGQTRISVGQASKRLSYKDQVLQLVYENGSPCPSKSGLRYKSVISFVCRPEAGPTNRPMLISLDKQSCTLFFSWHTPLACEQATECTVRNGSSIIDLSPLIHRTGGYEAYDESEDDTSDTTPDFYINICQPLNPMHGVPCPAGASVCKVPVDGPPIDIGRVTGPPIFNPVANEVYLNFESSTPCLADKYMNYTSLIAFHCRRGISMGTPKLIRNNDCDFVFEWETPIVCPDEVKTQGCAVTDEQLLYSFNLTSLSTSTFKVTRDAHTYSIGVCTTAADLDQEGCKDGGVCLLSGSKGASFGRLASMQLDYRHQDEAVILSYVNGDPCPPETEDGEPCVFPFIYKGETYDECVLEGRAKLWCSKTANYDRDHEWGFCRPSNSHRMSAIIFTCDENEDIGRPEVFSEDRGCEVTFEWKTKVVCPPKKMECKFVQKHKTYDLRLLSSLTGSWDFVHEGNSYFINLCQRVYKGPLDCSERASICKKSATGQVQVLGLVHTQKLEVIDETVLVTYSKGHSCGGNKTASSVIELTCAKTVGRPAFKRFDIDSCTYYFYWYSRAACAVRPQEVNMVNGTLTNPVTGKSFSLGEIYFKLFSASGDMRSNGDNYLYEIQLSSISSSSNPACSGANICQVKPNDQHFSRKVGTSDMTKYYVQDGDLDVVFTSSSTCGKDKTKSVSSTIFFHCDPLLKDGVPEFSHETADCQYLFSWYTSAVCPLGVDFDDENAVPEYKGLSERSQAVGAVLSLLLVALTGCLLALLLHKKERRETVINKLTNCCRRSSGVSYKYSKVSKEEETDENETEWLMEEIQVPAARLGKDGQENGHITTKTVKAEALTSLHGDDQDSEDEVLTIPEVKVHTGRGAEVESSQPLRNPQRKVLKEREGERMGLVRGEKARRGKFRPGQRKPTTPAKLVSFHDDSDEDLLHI
Chain of M6P/IGF2R (G3V824 36-2481): as above

As to `CC1=C(/C=C/C(C)=C/C=C/C(C)=C/C(=O)O)C(C)(C)CCC1` [RA, all-trans-retinoic acid], the “Inhibition of [3H]RA photolabeling/binding to M6P/IGF2R by nonradioactive competitor” value is given as “the radiolabel at the 300 kDa protein was lost; also recorded: inhibited the binding” in experiment [1] and “abolished the labeling” in experiment [1] (listed as all-trans-retinoic acid). In experiment [1] (incubation with [3H]RA followed by photolysis), the “Photoaffinity labeling of protein by [3H]RA” value was “labeling of a doublet protein at 300 kDa; also recorded: intensively photolabeled”. Also, the “M6P-inhibitable binding of β-glucuronidase to cells, presence vs absence of RA” value at M6P/IGF2R was 2-3 times. Moreover, the entries for the “RA-induced cathepsin B translocation” value in the experiment on P388D1 cells [2] (M6P/IGF2R-deficient P388D1 cells) and in the experiment on P388D1 cells [2] (stably-transfected P388D1 cells overexpressing M6P/IGF2R) were “No significant effect” and “remarkable cathepsin B translocation”, respectively. In experiment [3], the “Cellular acid phosphatase activity” value is given as “induced a transient cellular accumulation of acid phosphatase”. Moreover, the “Cell morphology and growth” value in experiment [4] (48 hours) was “marked alteration of cell morphology, and inhibition of growth”. In experiment [4] (RA-treated cultures vs controls), the “Apoptotic cells (Hoechst 33258 nuclear staining)” value is recorded as “many more apoptotic cells”. Moreover, the Cell morphology entry in the experiment on P388D1 cells [5] (P388D1 cells overexpressing M6P/IGF2R) is listed as “remarkable changes in cell morphology”; in the experiment with P388D1 cells [5] (control P388D1 cells transformed with vector alone) it was “no such changes”. Moreover, in the experiment on P388D1 cells [5] (1 μM RA, P388D1 cells overexpressing M6P/IGF2R), the “Cell growth (proliferation)” value is listed as “grew much more slowly”. Moreover, in the experiment on P388D1 cells [5] (RA, overexpressing P388D1 cells vs controls), the “Apoptotic cells (fluorescence staining of fragmented DNA)” value is given as “much higher number of apoptotic cells”.
